Data on twelve compounds can be found in patent publication US9056876B2, “Substituted 1H-pyrazolo[3′,4′,4,5]thieno[2,3-b]pyridin-3-amine analogs as positive allosteric modulators of the muscarinic acetylcholine receptor M4” (VANDERBILT UNIVERSITY, priority 2011, dated 2015).

SMILES strings stand for the structures.

The pEC50 is the EC50 on a negative log10 scale, so that one unit is a factor of ten. In general, EC50 refers to the concentration that produces a half-maximal response.

The assay deals with T1, mAChR M4 (UniProt P08173).
T1 construct: hM1 and hM4 cDNAs were purchased from Missouri S&T cDNA Resource
T1 sequence (P08173 1-479): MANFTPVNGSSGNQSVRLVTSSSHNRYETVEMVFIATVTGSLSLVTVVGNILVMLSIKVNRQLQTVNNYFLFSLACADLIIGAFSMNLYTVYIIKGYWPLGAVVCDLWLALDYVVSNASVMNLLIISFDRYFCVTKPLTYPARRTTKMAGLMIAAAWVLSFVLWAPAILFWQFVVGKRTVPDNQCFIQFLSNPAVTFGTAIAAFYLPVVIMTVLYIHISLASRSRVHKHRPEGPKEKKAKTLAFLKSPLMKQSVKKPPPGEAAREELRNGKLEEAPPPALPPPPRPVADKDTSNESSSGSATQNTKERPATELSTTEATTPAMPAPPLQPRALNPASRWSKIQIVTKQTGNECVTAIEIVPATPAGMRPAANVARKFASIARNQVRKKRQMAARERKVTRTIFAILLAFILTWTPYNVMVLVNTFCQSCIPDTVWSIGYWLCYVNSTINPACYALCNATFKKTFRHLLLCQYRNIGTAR
The experiment in a line: mAChR M4 cell-based functional assay (calcium mobilization, Fluo-4, FDSS). To be noted: for Emax (%)*: % ACh maximum at 30 μM; for pEC50: positive allosteric modulator activity, EC20 acetylcholine response; for pEC50 / EC50: CHO-K1 cells; for EC50: positive allosteric modulator activity: concentration-dependent increase in the EC20 acetylcholine response, >10 μM estimated for low potency (no plateau). The method, boiled down:
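Compound responses (11-point, 1:3 series) were followed as calcium fluorescence ratio on FDSS in Gqi5-coupled M4 CHO-K1 cells (human or rat) loaded with Fluo-4. Acetylcholine followed at EC20 (144 s) then EC80 (230 s). EC50/Emax from four-parameter logistic fits of direct, EC20-potentiating or EC80-inhibiting effects.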

In the case of `Cc1cc(C)c2c(n1)sc1c(NCc3cc(C)on3)nn(C)c12` [Compound 97, 1,6,8-trimethyl-N-((5-methylisoxazol-3-yl)methyl)-1H-pyrazolo[3′,4′:4,5]thieno[2,3-b]pyridin-3-amine], the “Emax (%)*” value turned out to be 59%, the pEC50 was found to be 5.43 and the EC50 is 3.7 µM.
For the compound `CCCn1nc(N)c2sc3nc(C)cc(C)c3c21` [Compound 166, 6,8-dimethyl-1-propyl-1H-pyrazolo[3′,4′:4,5]thieno[2,3-b]pyridin-3-amine], the negative logarithm of the EC50 (pEC50) was less than 5.00 and the EC50 is more than 10 µM.
In the case of `COCCn1nc(N)c2sc3nc(C)cc(C)c3c21` [Compound 165, 1-(2-methoxyethyl)-6,8-dimethyl-1H-pyrazolo[3′,4′:4,5]thieno[2,3-b]pyridin-3-amine], the pEC50 is recorded as less than 5.00 and the EC50 is more than 10 µM.
`Cc1cc(C)c2c(n1)sc1c(NC3CCCCC3)n[nH]c12` [Compound 132, N-cyclohexyl-6,8-dimethyl-1H-pyrazolo[3′,4′:4,5]thieno[2,3-b]pyridin-3-amine]: the pEC50 is reported as less than 5.00 and the EC50 was more than 10 µM.
`Cc1cc(C)c2c(n1)sc1c(NCc3cccnc3)nn(C)c12` [Compound 76, 1,6,8-trimethyl-N-(pyridin-3-ylmethyl)-1H-pyrazolo[3′,4′:4,5]thieno[2,3-b]pyridin-3-amine]: the “Emax (%)*” value is recorded as 68%, the pEC50 turned out to be 6.66 and the half-maximal effective concentration (EC50) is 0.22 µM.
As for `Cc1cc(C)c2c(n1)sc1c(NC3CCOCC3)nn(CCO)c12` [Compound 115, 2-(6,8-dimethyl-3-((tetrahydro-2H-pyran-4-yl)amino)-1H-pyrazolo[3′,4′:4,5]thieno[2,3-b]pyridin-1-yl)ethanol], the “Emax (%)*” value worked out at 69%, the pEC50 is recorded as 5.72 and the EC50 is 1.9 µM.
For `COCCn1nc(NCc2ccc(OC)cc2)c2sc3nc(C)cc(C)c3c21` [Compound 118, N-(4-methoxybenzyl)-1-(2-methoxyethyl)-6,8-dimethyl-1H-pyrazolo[3′,4′:4,5]thieno[2,3-b]pyridin-3-amine] the same measures were 60%, less than 5.00 and more than 10 µM.
As for `Cc1ccnc2sc3c(NCC4CC4)nn(C)c3c12` [Compound 69, N-(cyclopropylmethyl)-1,8-dimethyl-1H-pyrazolo[3′,4′:4,5]thieno[2,3-b]pyridin-3-amine], the “Emax (%)*” value was determined as 77%, the negative logarithm of the EC50 (pEC50) was 5.89 and the concentration for a half-maximal effect (EC50) was 1.3 µM.
Turning to `Cc1cc(C)c2c(n1)sc1c(NC(=O)C3CC3)nn(C)c12` [Compound 46, N-(1,6,8-trimethyl-1H-pyrazolo[3′,4′:4,5]thieno[2,3-b]pyridin-3-yl)cyclopropanecarboxamide], the “Emax (%)*” value was determined as 44%, the negative logarithm of the EC50 (pEC50) is less than 5.00 and the EC50 was more than 10 µM.
With `Cc1nc2sc3c(NCC4CC4)nn(C)c3c2c(C)c1Cl` [Compound 19, 7-chloro-N-(cyclopropylmethyl)-1,6,8-trimethyl-1H-pyrazolo[3′,4′:4,5]thieno[2,3-b]pyridin-3-amine], the “Emax (%)*” value was found to be 65%, the pEC50 turned out to be 6.59 and the concentration for a half-maximal effect (EC50) is 0.26 µM.
As for `Cc1cc(C)c2c(n1)sc1c(NCC3CCCN3C(=O)OC(C)(C)C)nn(C)c12` (centres unmarked) [Compound 85, tert-butyl 2-(((1,6,8-trimethyl-1H-pyrazolo[3′,4′:4,5]thieno[2,3-b]pyridin-3-yl)amino)methyl)pyrrolidine-1-carboxylate], the “Emax (%)*” value amounted to 37%, the negative-log EC50 (pEC50) is reported as 5.48 and the EC50 is 3.3 µM.
On to `Cc1cc(C)c2c(n1)sc1c(N)nn(C(=O)OC(C)(C)C)c12` [Compound 125, tert-butyl 3-amino-6,8-dimethyl-1H-pyrazolo[3′,4′:4,5]thieno[2,3-b]pyridine-1-carboxylate], for which the pEC50 is listed as less than 5.00 and the EC50 is more than 10 µM.
